Measurements from US20130165464A1, “HETEROARYLS AND USES THEREOF” (MILLENNIUM PHARMACEUTICALS, INC., priority 2011, published 2013).

Molecular target: T1, VPS34 (Homo sapiens, UniProt Q8NEB9)
T1 construct: GST (N); host or cells: SF9 insect cells (baculovirus)
Assay: Human VPS34 enzyme assay (Adapta TR-FRET)
Assay type: biochemical
Conditions: for inhibition at 1.11 µM: 1 h, at a 1.11 μM concentration, read-out: VPS34 Percent Inhibition

T1 sequence (Q8NEB9 whole entry): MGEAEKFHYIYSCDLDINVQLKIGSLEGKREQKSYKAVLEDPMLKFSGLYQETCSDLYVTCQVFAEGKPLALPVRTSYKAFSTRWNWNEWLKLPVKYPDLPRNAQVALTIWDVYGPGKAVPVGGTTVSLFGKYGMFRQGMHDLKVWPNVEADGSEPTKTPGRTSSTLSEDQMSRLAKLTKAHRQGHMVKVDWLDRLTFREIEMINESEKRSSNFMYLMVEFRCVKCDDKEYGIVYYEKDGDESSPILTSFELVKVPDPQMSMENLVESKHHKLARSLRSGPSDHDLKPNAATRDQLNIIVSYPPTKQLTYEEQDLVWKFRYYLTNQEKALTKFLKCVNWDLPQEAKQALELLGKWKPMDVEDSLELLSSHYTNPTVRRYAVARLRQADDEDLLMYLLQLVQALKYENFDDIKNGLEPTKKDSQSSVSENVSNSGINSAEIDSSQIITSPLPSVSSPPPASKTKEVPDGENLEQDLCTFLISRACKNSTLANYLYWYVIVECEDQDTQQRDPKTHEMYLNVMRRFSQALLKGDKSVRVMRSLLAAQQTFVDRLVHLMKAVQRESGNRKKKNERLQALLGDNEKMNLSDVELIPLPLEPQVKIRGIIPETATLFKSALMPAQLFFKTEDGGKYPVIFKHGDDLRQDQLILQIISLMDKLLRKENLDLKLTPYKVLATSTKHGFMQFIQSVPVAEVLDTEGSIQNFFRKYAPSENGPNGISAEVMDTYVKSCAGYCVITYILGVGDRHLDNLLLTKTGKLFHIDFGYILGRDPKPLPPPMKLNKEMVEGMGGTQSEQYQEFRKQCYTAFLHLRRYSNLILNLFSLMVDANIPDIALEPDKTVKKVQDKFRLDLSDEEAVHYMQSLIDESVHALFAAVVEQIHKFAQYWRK

Structure (SMILES)	inhibition at 1.11 µM [%]	IC50 [µM]
CCN(CC)Cc1ccc(Cl)c(-c2nn(-c3cc(NC(C)=O)ncc3C)cc2-c2nc[nH]n2)c1 [I-58, N-{4-[3-{2-chloro-5-[(diethylamino)methyl]phenyl}-4-(1H-1,2,4-triazol-3-yl)-1H-pyrazol-1-yl]-5-methylpyridin-2-yl}acetamide]	> 99	
CC(=O)Nc1cc(-n2cc(-c3nc[nH]n3)c(-c3cc(CN(C)C)ccc3Cl)n2)c(C)cn1 [I-42, N-{4-[3-{2-chloro-5-[(dimethylamino)methyl]phenyl}-4-(1H-1,2,4-triazol-3-yl)-1H-pyrazol-1-yl]-5-methylpyridin-2-yl}acetamide]	> 99	< 0.05
CC(=O)Nc1cc(-n2cc(-c3nc[nH]n3)c(-c3ccccc3C#N)n2)c(C)cn1 [I-52, N-{4-[3-(2-cyanophenyl)-4-(1H-1,2,4-triazol-3-yl)-1H-pyrazol-1-yl]-5-methylpyridin-2-yl}acetamide]	> 99	
Cc1cnc(NC(=O)C2CC2)cc1-n1cc(C(N)=O)c(-c2ccccc2Cl)n1 [I-34, 3-(2-chlorophenyl)-1-{2-[(cyclopropylcarbonyl)amino]-5-methylpyridin-4-yl}-1H-pyrazole-4-carboxamide]	92	0.15 to 1
Cc1cnc(NC(=O)C2CC2)cc1-n1cc(C(N)=O)c(-c2cc(CN3CCCC3)ccc2Cl)c1 [I-71, 4-[2-chloro-5-(pyrrolidin-1-ylmethyl)phenyl]-1-{2-[(cyclopropylcarbonyl)amino]-5-methylpyridin-4-yl}-1H-pyrrole-3-carboxamide]	> 99	0.15 to 1
CC(=O)Nc1cc(-n2cc(-c3nc[nH]n3)c(-c3ccc(F)cc3Cl)n2)c(C)cn1 [I-65, N-{4-[3-(2-chloro-4-fluorophenyl)-4-(1H-1,2,4-triazol-3-yl)-1H-pyrazol-1-yl]-5-methylpyridin-2-yl}acetamide]	> 99	
CC(=O)Nc1cc(-n2cc(C(N)=O)c(-c3cc(CN(C)C)ccc3Cl)c2)c(C)cn1 [I-70, 1-(2-acetamido-5-methylpyridin-4-yl)-4-{2-chloro-5-[(dimethylamino)methyl]phenyl}-1H-pyrrole-3-carboxamide]	20	1 to 5

Now from value to compound:

inhibition at 1.11 µM [%]	IC50 [µM]	Structure (SMILES)
10	1 to 5	Cc1cnc(N)cc1-n1cc(-c2nnc[nH]2)c(-c2ccccc2Cl)n1 [I-108, 4-[3-(2-chlorophenyl)-4-(4H-1,2,4-triazol-3-yl)-1H-pyrazol-1-yl]-5-methylpyridin-2-amine]
> 99	< 0.05	CC(=O)Nc1cc(-n2cc(-c3nnc[nH]3)c(-c3ccc(Cl)cc3Cl)n2)c(C)cn1 [I-39, N-{4-[3-(2,4-dichlorophenyl)-4-(4H-1,2,4-triazol-3-yl)-1H-pyrazol-1-yl]-5-methylpyridin-2-yl}acetamide]
> 99	< 0.05	COC(=O)Nc1cc(-n2cc(-c3ncc[nH]3)c(-c3ccccc3Cl)n2)c(C)cn1 [I-64, methyl {4-[3-(2-chlorophenyl)-4-(1H-imidazol-2-yl)-1H-pyrazol-1-yl]-5-methylpyridin-2-yl}carbamate]
97	0.15 to 1	CC(=O)Nc1cc(-n2cc(C(=O)O)c(-c3ccccc3Cl)n2)c(C)cn1 [I-6, 1-(2-acetamido-5-methylpyridin-4-yl)-3-(2-chlorophenyl)-1H-pyrazole-4-carboxylic acid]
96	0.15 to 1	CC(=O)Nc1cc(-n2cc(C(N)=O)c(-c3ccccc3Cl)n2)c(C)cn1 [I-11, 1-(2-acetamido-5-methylpyridin-4-yl)-3-(2-chlorophenyl)-1H-pyrazole-4-carboxamide]
